Like-named read-outs stand apart in the source and are kept apart here.
Key:
[1] = test system: GSPT1; test: Payload release assay (DC50 readout), GSPT1 degradation in the presence of recombinant target protein; format: cell-based; settings: I-series compounds (GSPT1 readout inferred)
Description: Exemplary compounds were tested for ability to cause degradation of CCNK or GSPT1 in the presence of recombinant target protein.
HEK293 LgBiT/GSPT1 HiBiT CRISPR Knock-in cells (Promega) were cultured in DMEM (Gibco 11995), supplemented with 10% Heat-inactivated FBS (Gibco A38400-01) and 1% Penicillin/Streptomycin (Gibco 15140-122) and 200 Vg/ml Hygromycin B (Gibco 10-687-010) at 37° C. with 5% CO2 in a humidified tissue culture incubator. HEK293 LgBiT/CCNK HiBiT cells (in-house, described above) were cultured in DMEM (Gibco 11995), supplemented with 10% Heat-inactivated FBS (Gibco A38400-01) and 1% Penicillin/Streptomycin (Gibco 15140-122) 200 Vg/ml Hygromycin B (Gibco 10-687-010), and 1 Vg/ml Puromycin Dihydrochloride (Thermo A1113803) at 37° C. with 5% CO2 in a humidified tissue culture incubator. Cells were seeded (1000 cells/well for HEK293 LgBiT/GSPT1 HiBiT cells or 3000 cells/well for HEK293 LgBiT/CCNK HiBiT cells) 384-well, tissue culture-treated white plates (Perkin Elmer 6007680) in 10 μL media lacking selection for 18-24 hours. Plates were spun at 300 g for 30 seconds and stored in the incubator overnight. After 24 hours, a 5 μL aliquot of recombinant target protein (final concentration of either 5 μM KRAS amino acids 1-169, C51S, C80L, C118S, G12C or 3 μM EGFR amino acids 696-1022 or 3 μM EGFR amino acids 696-1022, T790M, L858R) was added to wells, followed immediately by a 5 μL aliquot of 4× compound-containing medium supplemented with Endurazine Substrate (Promega N2570) was added in each well, at a final top concentration of 10 μM test compound and 0.5× Endurazine, with 4-fold dilutions, using DMSO alone as a negative control. Plates were then spun at 300×g for 3 minutes again and cultured at 37° C. with 5% CO2. After 6 hours the plate was read on Envision MultiMode Plate Reader 2105 (Perkin Elmer) to measure luminescence signal. Data was normalized to DMSO treated cell wells. A four-parameter non-linear regression curve fit was applied to dose-response data in Prism to determine the half maximal growth inhibitory concentration (GI50) of each compound.

[2] = test system: HeLa cells (ATCC CCL-2); test: Cellular growth inhibition assay, HeLa cells (Example 16); format: cell-based; settings: Homo sapiens, 72 hours, CellTiter-Glo 2.0
[3] = target: KRAS G12C (Homo sapiens, UniProt P01116, G12C); test: KRAS G12C nucleotide exchange assay (SOS1-mediated, HTRF); format: biochemical; parameters: GST-tagged KRAS G12C (amino acids 2-169); settings: 1 hr pre-incubation
KRAS G12C, sequence (P01116 2-169 isoform P01116-2 G12C): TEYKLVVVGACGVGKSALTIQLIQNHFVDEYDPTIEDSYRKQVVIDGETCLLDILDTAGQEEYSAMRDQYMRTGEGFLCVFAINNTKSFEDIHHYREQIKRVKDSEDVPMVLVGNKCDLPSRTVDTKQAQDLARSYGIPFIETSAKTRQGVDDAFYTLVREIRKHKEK
How it was run: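 GST-tagged KRAS G12C (aa 2-169, 30 nM) pre-incubated 1 h at RT with compound (10-point, 3-fold dilution from 10 μM), then SOS1 (aa 564-1049, 20 nM) and GTP-DY-647P1 (0.15 μM) added. Exchange read by HTRF with anti-GST Tb antibody. IC50 from sigmoidal variable-slope fit.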

[4] = test system: HEK293 cells (ATCC CRL-1573); test: Cellular growth inhibition assay, HEK293 cells (Example 16); format: cell-based; settings: Homo sapiens, 72 hours, CellTiter-Glo 2.0
[5] = 0 μM recombinant KRAS G12C, read-out: DC50 at 0 μM KRAS G12C
[6] = 5 μM recombinant KRAS G12C, read-out: DC50 at 5 μM KRAS G12C

Row | SMILES | DC50 [1, 5] [nM] | DC50 [1, 6] [nM] | GI50 [2] [µM] | IC50 [3] [nM] | GI50 [4] [nM]
1 | C=C(COc1cc(Cl)c(OC)cc1NC(=O)NCc1ccc2c(c1)CN(C1CCC(=O)NC1=O)C2=O)C(=O)N1CC2(CC(n3nc(-c4ccc5c(cnn5C)c4)c(-c4c(Cl)c(C)cc5[nH]ncc45)c3C)C2)C1 (stereo not drawn) [Compound I-66] | < 250 | < 250 | 0.5 to 1.5 | 100 to 5000 | < 500
2 | C=C(COc1cc(Cl)c(OC)cc1NC(=O)NCc1ccc2c(c1)CN(C1CCC(=O)NC1=O)C2=O)C(=O)N1CCN(c2nc(OC[C@@H]3CCCN3C)nc3c2CCN(c2cccc4cccc(Cl)c24)C3)C[C@@H]1CC#N (stereo partly drawn) [Compound I-46] | 250 to 5000 | < 250 | > 10 | < 100 | 500 to 1500
3 | C=C(COc1cc(NC(=O)NCc2ccc3c(c2F)CN(C2CCC(=O)NC2=O)C3=O)cc(C(F)(F)F)c1)C(=O)N1CCN(c2nc(OC[C@@H]3CCCN3C)nc3c2CCN(c2cccc4cccc(Cl)c24)C3)C[C@@H]1CC#N (stereo partly drawn) [Compound I-85] | 250 to 5000 | < 250 | > 10 | < 100 | 1500 to 10000
4 | C=C(CN1CCN(c2nc(NCc3nc4cc(C)ccc4[nH]3)n3ncc(Br)c3n2)CC1)C(=O)N1CCN(c2nc(OC[C@@H]3CCCN3C)nc3c2CCN(c2cccc4cccc(Cl)c24)C3)C[C@@H]1CC#N [II-190] |  |  | < 0.5 | < 100 | < 500
5 | C=C(COc1cc(NC(=O)NCc2ccc3c(c2)CN(C2CCC(=O)NC2=O)C3=O)cc(C(F)(F)F)c1)C(=O)N1CCN(c2nc(OC[C@@H]3CCCN3C)nc3c2CCN(c2cccc4cccc(Cl)c24)C3)C[C@@H]1CC#N (stereo partly drawn) [Compound I-48] | 250 to 5000 | 250 to 5000 | > 10 | < 100 | 1500 to 10000
6 | C=C(COc1cc(NC(=O)NCc2ccc3c(c2F)CN(C2CCC(=O)NC2=O)C3=O)cc(C(F)(F)F)c1)C(=O)N1CC2(CC(n3nc(-c4ccc5c(cnn5C)c4)c(-c4c(Cl)c(C)cc5[nH]ncc45)c3C)C2)C1 (stereo not drawn) [Compound I-68] | > 10000 | > 10000 | > 10 | 100 to 5000 | < 500
7 | C=C(COc1cc(F)c(F)cc1NC(=O)NCc1ccc2c(c1)CN(C1CCC(=O)NC1=O)C2=O)C(=O)N1CCN(c2nc(OC[C@@H]3CCCN3C)nc3c2CCN(c2cccc4cccc(Cl)c24)C3)C[C@@H]1CC#N (stereo partly drawn) [Compound I-62] | 250 to 5000 | < 250 | > 10 | < 100 | > 10000
8 | C=C(COc1cc(NC(=O)NCc2ccc3c(c2)CN(C2CCC(=O)NC2=O)C3=O)cc(OC)c1)C(=O)N1CC2(CC(n3nc(-c4ccc5c(cnn5C)c4)c(-c4c(Cl)c(C)cc5[nH]ncc45)c3C)C2)C1 (stereo not drawn) [Compound I-67] | 250 to 5000 | 250 to 5000 | > 10 | 100 to 5000 | > 10000
9 | C=C(COC(=O)c1c(C)csc1NC(=O)NCc1ccc2c(c1)CN(C1CCC(=O)NC1=O)C2=O)C(=O)N1CCN(c2nc(OC[C@@H]3CCCN3C)nc3c2CCN(c2cccc4cccc(Cl)c24)C3)C[C@@H]1CC#N (stereo partly drawn) [Compound I-72, 2-[(2S)-4-[7-(8-chloro-1-naphthyl)-2-[[(2S)-1-methylpyrrolidin-2-yl]methoxy]-6,8-dihydro-5H-pyrido[3,4-d]pyrimidin-4-yl]-2-(cyanomethyl)piperazine-1-carbonyl]allyl 2-[[2-(2,6-dioxo-3-piperidyl)-1-oxo-isoindolin-5-yl]methylcarbamoylamino]-4-methyl-thiophene-3-carboxylate] | > 10000 | 250 to 5000 | 1.5 to 10 | < 100 | 1500 to 10000
10 | C=C(COc1cc(Cl)cc(NC(=O)NCc2ccc3c(c2)CN(C2CCC(=O)NC2=O)C3=O)c1)C(=O)N1CC2(CC(n3nc(-c4ccc5c(cnn5C)c4)c(-c4c(Cl)c(C)cc5[nH]ncc45)c3C)C2)C1 (stereo not drawn) [Compound I-56] | < 250 | < 250 | < 0.5 | 100 to 5000 | 500 to 1500
